Results: patent US20120329862A1, “NOVEL COMPOUND HAVING INHIBITORY EFFECT ON LIPASE” (SUNTORY HOLDINGS LIMITED, priority 2004, published 2012)

Legend:
[1] = target: T1, porcine pancreatic lipase (Sus scrofa, UniProt P00591); assay: Lipase inhibitory activity measurement (4-UMO fluorescent substrate); format: biochemical; details: 4-UMO substrate, pH 8.0, 25° C., 30 minutes
T1 construct: purchased Sigma
T1 sequence (P00591 1-450): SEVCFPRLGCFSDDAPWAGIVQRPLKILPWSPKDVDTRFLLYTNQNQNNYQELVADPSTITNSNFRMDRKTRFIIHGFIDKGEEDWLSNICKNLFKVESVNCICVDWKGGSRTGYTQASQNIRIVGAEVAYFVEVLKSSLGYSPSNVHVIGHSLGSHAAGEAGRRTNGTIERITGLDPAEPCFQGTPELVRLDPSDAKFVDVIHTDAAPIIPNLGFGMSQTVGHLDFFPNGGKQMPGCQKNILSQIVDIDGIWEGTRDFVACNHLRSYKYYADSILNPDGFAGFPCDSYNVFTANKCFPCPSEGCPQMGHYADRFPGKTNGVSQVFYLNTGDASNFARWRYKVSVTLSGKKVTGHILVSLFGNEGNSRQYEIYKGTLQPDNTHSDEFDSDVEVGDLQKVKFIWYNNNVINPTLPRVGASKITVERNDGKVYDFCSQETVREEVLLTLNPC
Description: Lipase activity measurement was carried out by using oleic acid ester of fluorescent 4-methylumbelliferone (4-UMO) as a substrate, and measuring the fluorescence of 4-methylumbelliferone produced by reaction.
In the measurement, 13 mM Tris-HCl containing 150 mM NaCl and 1.36 mM CaCl2 was used as a buffer (pH 8.0). Substrate 4-UMO (Sigma) was prepared as 0.1M solution in DMSO and diluted 1000-fold with the buffer mentioned above. Similarly, lipase (porcine pancreatic lipase (Sigma)) was prepared as 400 U/ml solution in the buffer mentioned above and used in enzymatic measurement.
50 μl of the 4-UMO buffer solution and 25 μl of distilled water (or sample solution) were placed in a 96-well microplate and mixed at 25° C., followed by adding 25 μl of the lipase buffer solution to start enzyme reaction. After 30 minutes of reaction, 100 μl of 0.1M citric acid buffer (pH 4.2) was added to terminate the reaction, and the fluorescence of 4-methylumbelliferone (excitation wavelength: 355 nm, fluorescence wavelength: 460 nm) produced by the reaction was measured with a fluorescence plate reader (Labsystems, Fluoroskan Asent CF).
An inhibitory activity of the sample was determined as IC50, or the amount of the sample which gave […] of inhibition compared to the activity of control (distilled water).

[2] = Solubility of purified compound; format: physicochemical; details: purified white powder
Text: The product obtained from oxidative polymerization reaction may be purified by conventional methods such as chromatography. […] Therefore, this compound is suitable for use in, for example, foods and/or beverages, and pharmaceutical drugs as an active lipase inhibitory ingredient for suppressing absorption of dietary lipids, thereby suppressing the rise of blood triglyceride or decreasing increased blood triglyceride.

IC50 [1] [nM] | solubility [2] | Compound | lipase inhibitory activity IC50 [1] [µg/mL] | IC50 ([1]; value in brackets) [nM]
– | – | epigallocatechin-3-O-gallate [EGCG, reference compound] | 0.16 | 349
67.8 | soluble in water, methanol and DMSO | O=C(O[C@@H]1Cc2c(O)cc(O)cc2O[C@@H]1C1=CC(=O)C2(O)Oc3c(O)c(O)cc([C@H]4Oc5cc(O)cc(O)c5C[C@H]4OC(=O)c4cc(O)c(O)c(O)c4)c3C12)c1cc(O)c(O)c(O)c1 (some centres unmarked) [OTNG, oolongtheanin-3′-O-gallate] | – | 68
